The subject of one assay is Y1R. The following applies: cited from earlier work.
For assay [1], the system named is Y4R. As to conditions: cited from earlier work.
Assay [2] relates to Y2R. The following applies: cited from earlier work.
In the next assay the target is Nluc-Y4R Q^5.46A (human) (UniProt P50391). In words: FRET or BRET.
The target in assay [3] is Nluc-Y4R, wild type (human) (UniProt P50391). Kind of assay: FRET or BRET. (In BRET a luciferase serves as donor, and the signal depends on an acceptor being close.)
Sequence of Nluc-Y4R, wild type (human) (P50391 whole entry): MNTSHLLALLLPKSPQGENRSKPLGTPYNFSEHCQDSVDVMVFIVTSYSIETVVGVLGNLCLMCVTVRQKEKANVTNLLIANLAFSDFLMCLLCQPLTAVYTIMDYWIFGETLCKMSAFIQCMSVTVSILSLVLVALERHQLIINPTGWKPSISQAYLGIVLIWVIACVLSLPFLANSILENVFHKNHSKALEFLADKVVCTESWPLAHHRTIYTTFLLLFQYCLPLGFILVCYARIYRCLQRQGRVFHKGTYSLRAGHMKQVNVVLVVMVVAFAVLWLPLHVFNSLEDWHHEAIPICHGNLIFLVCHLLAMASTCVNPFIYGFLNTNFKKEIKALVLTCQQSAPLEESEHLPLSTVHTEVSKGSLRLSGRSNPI
Assay [4] shares this target. In words: FRET or BRET. This is another data set of the same source.
Assay [5] has as its target T1, Y2R (Homo sapiens, UniProt P49146).
T1 sequence (P49146 1-381): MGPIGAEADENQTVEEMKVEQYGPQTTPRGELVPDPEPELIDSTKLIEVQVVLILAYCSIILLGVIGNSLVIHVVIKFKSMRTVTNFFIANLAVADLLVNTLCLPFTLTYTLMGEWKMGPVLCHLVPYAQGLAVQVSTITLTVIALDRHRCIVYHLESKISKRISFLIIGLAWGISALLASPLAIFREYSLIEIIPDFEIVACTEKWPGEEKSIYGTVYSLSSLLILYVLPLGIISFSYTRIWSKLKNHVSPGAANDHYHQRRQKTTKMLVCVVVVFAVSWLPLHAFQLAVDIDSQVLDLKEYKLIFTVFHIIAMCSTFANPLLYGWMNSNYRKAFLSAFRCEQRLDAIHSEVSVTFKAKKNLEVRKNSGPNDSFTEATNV
The assay is classed as binding. As to conditions: high- and low-affinity state.

Assay [6] has as its target Nluc-Y1R, wild type (human) (UniProt P25929). In words: FRET or BRET.
Assay [7] concerns Y4R. The following applies: cited from earlier work. This is another data set of the same source.

Like-named read-outs stand apart in the source and are kept apart here. No end group written: not given here.

Sequence of Nluc-Y1R, wild type (human) (P25929 whole entry): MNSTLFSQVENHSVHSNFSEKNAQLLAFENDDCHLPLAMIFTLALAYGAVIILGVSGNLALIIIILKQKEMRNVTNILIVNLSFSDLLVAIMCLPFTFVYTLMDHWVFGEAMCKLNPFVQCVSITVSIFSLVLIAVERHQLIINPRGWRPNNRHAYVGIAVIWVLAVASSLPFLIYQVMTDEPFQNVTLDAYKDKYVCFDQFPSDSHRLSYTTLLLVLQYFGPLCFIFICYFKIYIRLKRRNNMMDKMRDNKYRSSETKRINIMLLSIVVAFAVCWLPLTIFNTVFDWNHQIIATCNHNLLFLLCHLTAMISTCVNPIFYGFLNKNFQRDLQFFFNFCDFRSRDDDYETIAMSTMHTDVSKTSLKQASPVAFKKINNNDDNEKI
Sequence of Nluc-Y4R Q^5.46A (human) (P50391 whole entry): as the sequence (P50391 whole entry) above

In the case of Q34P-substituted analog of NPY, the affinity result in the assay with Y1R (Y1R) is “wild-type affinity”. For the same compound, the binding affinity entry in the assay with Y1R (Y1R, exchange of Q34 by proline) is on record as “unchanged binding affinity”. For the same compound, the binding result with Y4R [1] is “improved binding”; in the assay with Y2R [2], “not tolerated”.

On to “NPY(13–36): N-terminally truncated NPY analog”, for which the affinity result in the assay with Y2R [2] was “subnanomolar affinity”.

On to K22(TAMRA),Nle17,30-PP (peptide), for which the fold reduction of affinity against wild-type Y4R in the assay with Nluc-Y4R Q^5.46A (human) is 100 fold. The KD,1 (high-affinity state) amounted to 18 nM in [3] and 26 nM in [4].

As to “NPY(22–36): N-terminally truncated NPY analog”, the affinity entry in the assay with Y2R [2] is “subnanomolar affinity”.

For NPY mutant T32A, the binding affinity entry in the assay with Y1R (Y1R), in the assay with Y4R [1] and in the assay with Y2R [2] was “loss of binding affinity” each time.

As to `CCN(CC)C(=O)C(c1ccccc1)N1CCN(c2ccc(NC(=O)c3ccccc3-c3cccnc3)cc2F)CC1` (stereo not drawn) [JNJ-31020028], the “affinity (Ki) in both states” value at Y2R [5] was “essentially the same affinity”.

The compound K18(TAMRA)-NPY (peptide) gave a KD,2 (low-affinity state) in assay [6] of 126 nM.

On to “PP(2–36): N-terminally truncated PP (PLEPVYPGDNATPEQMAQYAADLRRYINMLTRPRY; ends and bridges not checked; UniProt P01298 31-65, looked up, fragment)”, for which the functional impairment result with Y4R [7] was “limited functional impairment”.

In the case of “PYY: 36-residue C-terminally amidated neuropeptide”, the binding entry with Y1R (Y1R F286A) is recorded as “marked loss”.

Consider “NPY(18–36): N-terminally truncated NPY analog”, for which the affinity result in the assay with Y2R [2] was “subnanomolar affinity”.

As to “NPY(3–36): N-terminally truncated NPY analog”, the “reduction of affinity and activity, respectively” value in the assay with Y1R (Y1R) was “more than 50 fold”. For the same compound, the affinity result in the assay on Y2R [2] is given as “subnanomolar affinity”.

Regarding Q34G variant of NPY, the “loss of binding affinity compared to NPY” value with Y1R (Y1R) is 15 fold.

As for NPY(2–36): truncated NPY analog, the “reduction of affinity and activity, respectively” value in the assay on Y1R (Y1R) is reported as “more than 50 fold”.

The values above are taken from publication PMC9067930 (Science Advances, 2022).
